Test results reported in patent US20170035708A1, “USE OF N-(4-TERT-BUTYLBENZYL)-3-CHLORO-N-[2-(4-CHLORO-3-ETHYL-PHENYL)-ETHYL]-2-FLUORO-5-TRIFLUOROMETHYL-BENZAMIDE FOR THE TREATMENT OF EYE DISEASES” (Hoffmann-La Roche Inc., priority 2013, published 2017).

Experiments:
[1] = test system: Human umbilical vein endothelial cells (HUVEC); assay: alamarBlue viability assay in HUVECs; format: cell-based; settings: 72 h
Method: Human umbilical vein endothelial cells (HUVEC), the growth medium EGM and the basal medium EBM was obtained from Lonza. Additional FCS for the starving medium was used form Invitrogen.
The viability assay with alamarBlue® from Invitrogen was done in 96 well gelatin coated plates from BD.
The tested compounds were dissolved in DMSO at a stock concentration of 10 mM.
VEGF-A165 was obtained from R&D Systems® and has been dissolved at a stock concentration of 100 ug/ml in PBS.
HUVECs cells were maintained in Endothial growth medium (EGM) until Passage 5. For the viability assay HUVECs have been seeded in EBM with 0.5% FCS on gelatin coated 96 well plates at a cell density of 11.000 cells/well. Outer wells were left free and have been filled with medium afterwards. Cells were incubated overnight in a cell culture incubator at 37° C. with 5% CO2. Compounds and VEGF have been diluted in EBM/0.5% FCS to a 20× working concentration. 5 ul of the 20× pre-dilution have been added to the cells. HUVECs which have to be intended to grow under hypoxia conditions have been transferred to a cell culture incubator with 1% O2, 5% CO2 and 37° C. HUVECs grown under normoxia conditions were incubated in a normal cell culture incubator. After 72 h, 11 ul of alamarBlue® have been added to each well of the cells subsequently incubated for 4 h in the cell culture incubator. The absorbance has been detected at 570 nm with a reference wavelength of 600 nm.

plasma CETP activity = target: T1, plasma CETP activity (Homo sapiens, UniProt P11597); assay: Plasma CETP activity and CETP mass in combined SAD/MAD clinical study; format: in vivo
T1 construct: from tissue; host or cells: plasma of study subjects
T1 sequence (P11597 18-493): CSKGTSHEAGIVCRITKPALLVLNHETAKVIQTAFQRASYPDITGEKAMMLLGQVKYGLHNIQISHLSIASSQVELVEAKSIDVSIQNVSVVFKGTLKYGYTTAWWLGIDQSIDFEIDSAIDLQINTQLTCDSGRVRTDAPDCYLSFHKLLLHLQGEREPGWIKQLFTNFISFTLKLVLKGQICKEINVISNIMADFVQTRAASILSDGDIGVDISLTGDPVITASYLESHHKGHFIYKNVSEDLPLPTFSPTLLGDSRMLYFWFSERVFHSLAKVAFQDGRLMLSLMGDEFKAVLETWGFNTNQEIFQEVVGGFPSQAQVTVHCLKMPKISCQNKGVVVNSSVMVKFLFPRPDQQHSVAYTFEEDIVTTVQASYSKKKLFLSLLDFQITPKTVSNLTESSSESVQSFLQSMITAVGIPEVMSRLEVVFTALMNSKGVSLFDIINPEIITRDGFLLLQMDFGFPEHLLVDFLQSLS
Method: The main difference between the different doses was the duration of the inhibition, which was sustained for 24 hours with the two highest tested multiple dose levels (180 mg and 420 mg). […] After multiple doses of N-(4-tert-Butyl-benzyl)-3-chloro-N-[2-(4-chloro-3-ethyl-phenyl)-ethyl]-2-fluoro-5-trifluoromethyl-benz-amide for 14 days, a similar trend in CETP inhibition was observed.

scavenger receptor SRB1 = assay: Cholesterol efflux from cells; format: cell-based; settings: via scavenger receptor SRB1
Text: N-(4-tert-Butyl-benzyl)-3-chloro-N-[2-(4-chloro-3-ethyl-phenyl)-ethyl]-2-fluoro-5-trifluoromethyl-benz-amide is a potent inhibitor of cholesteryl ester transfer protein (CETP), which was originally developed for the treatment of dyslipidemia and prevention of cardiovascular events. The clinical development was discontinued in 2009 due to strategic portfolio decision; the discontinuation was not due to the safety profile of the product. […] Liquid-filled hard capsules in the dose strength of 60 mg have been developed.

[2] = Pharmacokinetic properties and excretion in the rat; format: in vivo
Method: (§1) The pharmacokinetic (PK) properties of N-(4-tert-Butyl-benzyl)-3-chloro-N-[2-(4-chloro-3-ethyl-phenyl)-ethyl]-2-fluoro-5-trifluoromethyl-benz-amide were assessed in the rat and cynomolgus monkey. […] The very high protein binding, in combination with moderate membrane permeability, is the likely cause for the low volume of distribution observed in vivo.
In the rat and cynomolgus monkey, the major excretion route was the bile and feces, independent of the route of administration (approximately 92% of administered dose eliminated). Less than 1% of the dose was eliminated renally.

Membrane permeability = format: in vitro ADME
Method: as §1

With `CCc1cc(CCN(Cc2ccc(C(C)(C)C)cc2)C(=O)c2cc(C(F)(F)F)cc(Cl)c2F)ccc1Cl` [Compound 1, N-(4-tert-Butyl-benzyl)-3-chloro-N-[2-(4-chloro-3-ethyl-phenyl)-ethyl]-2-fluoro-5-trifluoromethyl-benzamide] the “alamarBlue assay OD 570 nm-600 nm” value ([1]; 4.1 nM, hypoxia) was −0.0059, the “alamarBlue assay OD 570 nm-600 nm” value ([1]; 4.1 nM, normoxia) was 0.0073 and the “alamarBlue assay OD 570 nm-600 nm” value ([1]; 10.2 nM, hypoxia) was 0.0152. For the same molecule, the “alamarBlue assay OD 570 nm-600 nm” value ([1]; 10.2 nM, normoxia) was 0.0075, the “alamarBlue assay OD 570 nm-600 nm” value ([1]; 25.6 nM, hypoxia) was 0.0144 and the “alamarBlue assay OD 570 nm-600 nm” value ([1]; 25.6 nM, normoxia) was 0.0056. For the same molecule, the “alamarBlue assay OD 570 nm-600 nm” value ([1]; 64 nM, hypoxia) was 0.0118, the “alamarBlue assay OD 570 nm-600 nm” value ([1]; 64 nM, normoxia) was 0.0062 and the “alamarBlue assay OD 570 nm-600 nm” value ([1]; 160 nM, hypoxia) was 0.0233. The “alamarBlue assay OD 570 nm-600 nm” value ([1]; 160 nM, normoxia) was 0.0127, the “alamarBlue assay OD 570 nm-600 nm” value ([1]; 400 nM, hypoxia) was 0.0326 and the “alamarBlue assay OD 570 nm-600 nm” value ([1]; 400 nM, normoxia) was 0.0223. For the same molecule, the “alamarBlue assay OD 570 nm-600 nm” value ([1]; 1000 nM, hypoxia) was 0.0967, the “alamarBlue assay OD 570 nm-600 nm” value ([1]; 1000 nM, normoxia) was 0.0600 and the “alamarBlue assay OD 570 nm-600 nm” value ([1]; 2500 nM, hypoxia) was 0.1488. The “alamarBlue assay OD 570 nm-600 nm” value ([1]; 2500 nM, normoxia) was 0.1512, the “effect on viability of HUVECs” value ([1]; hypoxia) was “induced a strong cell survival” and the “effect on viability of HUVECs” value ([1]; normoxia) was “positive effect of viability”. The CETP mass (plasma CETP activity; after multiple doses) was “dose-dependent and time-dependent increase”, the “inhibition of plasma CETP activity” value (plasma CETP activity; first measurement, 2 hours post-dose, Day 1, all doses, healthy and mildly dyslipidemic subjects) was “Complete CETP inhibition” and the “duration of the CETP inhibition” value (plasma CETP activity; two highest multiple dose levels (180 mg and 420 mg)) was 24 h. For the same molecule, the “cholesterol efflux from cells” value (scavenger receptor SRB1) was “efflux cholesterol from cells via scavenger receptor SRB1”, the absolute oral bioavailability [2] was “relatively low” and the dose eliminated renally [2] was “Less than 1%”. The gastrointestinal absorption [2] was “limited”, the terminal half-life [2] was “medium to long” and the total systemic clearance [2] was “low”. For the same molecule, the volume of distribution [2] was “low”, the plasma protein binding ([2]; across species) was “very high” and the “administered dose eliminated via bile and feces” value ([2]; independent of the route of administration) was “approximately 92%”. For the same molecule, the membrane permeability (Membrane permeability) was “moderate”.
